Measured values as given in patent US12433876B2, “Septin inhibitors for treatment of cancers” (UNIVERSITY OF ROCHESTER, priority 2019, dated 2025).

Key:
[1] = tested on: HE4 mRNA; experiment: HE4 expression by real time PCR; type: cell-based; settings: ECC-1, 300 μM, 5 hours, normalized to B2M
Protocol: (§1) Cell lines, Culture, and Reagents. Cells were maintained in either DMEM (SKOV-3, KLE, OVCAR-3, OVCAR8-C5 and IGROV-1) or RPMI-1640 (ECC-1 and HCH-1), supplemented with 10% fetal calf serum (or 20% for OVCAR-3), penicillin (100 units/mL), and streptomycin (100 μg/mL) at 37° C. with 5% CO2 in a humidified incubator. Antibodies were purchased from Abcam (septin-2; ab179436) and Cell Signaling Technology; ERK (9102), p-ERK (4370), -actin (3700), u-Tubulin (2144), EGFR (4267) and HER2 (4290). FCF was purchased from Abcam. All other chemicals were from Sigma Aldrich. Synthesis of Derivaties. […] The reaction was monitored using thin-layer chromatography plates with DCM-MeOH or pure ethyl acetate as eluent. Spots were monitored in a UV chamber. […] Quantitative Real-Time PCR. […] Quantitative real-time PCR was conducted using QuantStudio 12 K Flex Real-Time PCR System (ABI) and the Taqman Gene Expression Assay (ABI) consisting of the FAM-labeled probes as follows: SEPT2 (Hs01565417_ml); WFDC2 (Hs00899484_ml); TBP (Hs00427620_ml) or B2M (Hs00187842_ml), which was used as reference for normalization. […] Cell viability, proliferation, and cellular apoptosis were measured using the MTS (Promega), BrdU cell proliferation (Cell Signaling Technology), and Caspase-Glo 3/7 apoptosis detection (Promega) assays, following the respective manufacturer's recommendations with suitable modification. […]

[2] = tested on: EGFR; experiment: Western blot of EGFR expression; type: cell-based; settings: UR214-7 33 μM, UR214-9 33 μM; 24 hours
Protocol: as §1

[3] = tested on: ECC-1 cells; experiment: Caspase-3/7 activity apoptosis assay; type: cell-based; settings: ECC-1, 33 μM, 48 hours
Protocol: as §1

[4] = tested on: PANC-1 cells; experiment: Cell cycle analysis (PI, flow cytometry), PANC-1; type: cell-based, human
Protocol: For cell cycle analysis, BXPC-3 and PANC-1 and JIMT-1 cells (100,000/well) were seeded overnight in a 6 well dishes and allowed to adhere overnight. Media was replaced with fresh complete medium supplemented with DMSO or UR214-9 (100 nM and 3 μM) and cells were incubated for 72 hours. The media containing the drugs was removed and cells were washed twice with PBS and trypsinized gently. The cells were collected in 15 mL tubes, complete DMEM media was added to block trypsin and cells were centrifuged. The supernatants were removed and cells were gently treated with 70% cold-EtOH for 30 minutes. The fixed cells were centrifuged and the pellets obtained were collected in flow cytometry tubes and stained with preformulated PI/RNase solution (Cell Signaling Technology, catalog number: 4087s) for 30 minutes. The PI content was analyzed using a flow cytometer. Data was processed using Flowjo software.

Row | Compound | HE4 mRNA [1] | EGFR expression [2] | apoptosis (caspase-3/7 activity) [3] | cell cycle distribution ([4]; PANC-1, 100 nM) | cell cycle distribution ([4]; PANC-1, 3 μM)
1 | O=C(Nc1ccccc1)Nc1ccnc(Cl)c1 [FCF, N-(2-chloro-4-pyridyl)-N′-phenylurea, reference compound] | suppress HE4 mRNA to some extent | – | – | – | –
2 | O=C(Nc1cc(Cl)nc(Cl)c1)Nc1cccc(SC(F)(F)F)c1F [UR214-9] | – | did not have an effect | much more effective | minor S-phase arrest | complete arrest in sub-G1/G0 phase
